Columns and labels:
Test in all cases: Kinobeads competition binding, HL60 cell lysate
Conditions in all cases: 10 μM free compound
MSK1 = biological target: T1, MSK1 (Homo sapiens, UniProt O75582)
T1 construct: endogenous in cells; host or cells: HL60
Experimental: (§1) To one aliquot of cell lysate 10 μM of the free compound (FIG. 3, CZC31326) was added and allowed to bind to proteins in the lysate. Then the affinity matrix with the immobilized compound (Example 1) was added to capture proteins that were not interacting with the previously added free compound. Beads were separated from the lysate and bead bound proteins were eluted in SDS sample buffer and subsequently separated by SDS-Polyacrylamide gel electrophoresis (FIG. 4). Suitable gel bands were cut out and subjected to in-gel proteolytic digestion with trypsin. The second lysate aliquot was processed identically, however no free compound was added (DMSO solvent control). Peptides originating from samples 1 and 2 were labeled with iTRAQ reagents (iTRAQ 114 and iTRAQ 117) and the combined samples were analyzed with a nano-flow liquid chromatography system coupled online to a tandem mass spectrometer (LC-MS/MS) experiment followed by iTRAQ reporter ion quantification in the MS/MS spectra (Ross et al., 2004. Mol. Cell. Proteomics 3(12):1154-1169). Further experimental protocols can be found in WO2006/134056 and a previous publication (Bantscheff et al., 2007. Nature Biotechnology 25, 1035-1044). Sepharose-beads with the immobilized compound (100 μl beads per pull-down experiment) were equilibrated in lysis buffer and incubated with a cell lysate sample containing 50 mg of protein on an end-over-end shaker (Roto Shake Genie, Scientific Industries Inc.) for 2 hours at 4° C. Beads were collected, transferred to Mobicol-columns (MoBiTech 10055) and washed with 10 ml lysis buffer containing 0.4% NP40 detergent, followed by 5 ml lysis buffer containing 0.2% detergent. To elute bound proteins, 60 μl 2×SDS sample buffer was added to the column. The column was incubated for 30 minutes at 50° C. and the eluate was transferred to a siliconized microfuge tube by centrifugation. Proteins were then alkylated with 108 mM iodoacetamid. Proteins were then separated by SDS-Polyacrylamide electrophoresis (SDS-PAGE). The peptide extracts of samples treated with 10 μM of free compound (CZC31326) and the solvent control (0.5% DMSO) were treated with different variants of the isobaric tagging reagent (iTRAQ Reagents Multiplex Kit, part number 4352135, Applied Biosystems, Foster City, Calif., USA). The iTRAQ reagents are a set of multiplexed, amine-specific, stable isotope reagents that can label peptides on amino groups in up to four different biological samples enabling simultaneous identification and quantitation of peptides. The iTRAQ reagents were used according to instructions provided by the manufacturer. The samples were resuspended in 10 μl 50 mM TEAB solution, pH 8.5 and 10 μl ethanol were added. The iTRAQ reagent was dissolved in 120 μl ethanol and 10 μl of reagent solution were added to the sample. The labeling reaction was performed at room temperature for one hour on a horizontal shaker and stopped by adding 5 μl of 100 mM TEAB and 100 mM glycine in water. The two labeled sampled were then combined, dried in a vacuum centrifuge and resuspended in 10 μl of 0.1% formic acid in water. Relative protein quantitation was performed using peak areas of iTRAQ reporter ion signals essentially as described in an earlier publication (Bantscheff et al., 2007. Nature Biotechnology 25, 1035-1044).

ACK = biological target: T2, ACK (Homo sapiens, UniProt Q07912)
T2 construct: endogenous in cells; host or cells: HL60 cells
T2 sequence (Q07912 whole entry): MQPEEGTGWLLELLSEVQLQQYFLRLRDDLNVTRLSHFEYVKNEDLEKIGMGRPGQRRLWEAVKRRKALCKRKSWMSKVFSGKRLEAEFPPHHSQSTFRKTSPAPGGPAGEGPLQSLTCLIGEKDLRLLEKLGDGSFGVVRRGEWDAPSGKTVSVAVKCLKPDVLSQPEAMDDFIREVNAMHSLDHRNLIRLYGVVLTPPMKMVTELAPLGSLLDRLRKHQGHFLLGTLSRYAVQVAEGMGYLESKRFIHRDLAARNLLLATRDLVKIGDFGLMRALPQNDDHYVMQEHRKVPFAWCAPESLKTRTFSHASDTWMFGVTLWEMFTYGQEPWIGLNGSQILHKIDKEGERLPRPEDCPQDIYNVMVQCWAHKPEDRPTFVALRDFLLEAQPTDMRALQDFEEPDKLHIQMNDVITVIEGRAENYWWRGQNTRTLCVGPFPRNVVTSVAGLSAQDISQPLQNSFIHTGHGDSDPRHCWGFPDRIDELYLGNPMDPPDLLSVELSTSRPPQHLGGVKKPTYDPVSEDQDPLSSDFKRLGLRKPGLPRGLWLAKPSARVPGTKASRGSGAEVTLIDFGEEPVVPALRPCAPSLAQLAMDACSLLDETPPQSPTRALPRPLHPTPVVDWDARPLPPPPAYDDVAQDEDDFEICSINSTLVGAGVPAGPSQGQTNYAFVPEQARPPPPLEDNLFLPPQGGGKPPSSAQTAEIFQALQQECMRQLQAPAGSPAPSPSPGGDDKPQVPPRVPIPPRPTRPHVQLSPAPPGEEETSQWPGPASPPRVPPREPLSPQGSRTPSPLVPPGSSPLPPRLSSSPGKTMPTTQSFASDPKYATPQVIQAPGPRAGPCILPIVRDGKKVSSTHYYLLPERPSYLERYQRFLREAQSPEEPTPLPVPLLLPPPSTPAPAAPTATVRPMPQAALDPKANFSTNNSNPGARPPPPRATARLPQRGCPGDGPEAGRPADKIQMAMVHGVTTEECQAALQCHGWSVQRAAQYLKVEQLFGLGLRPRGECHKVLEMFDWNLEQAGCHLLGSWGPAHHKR
Experimental: as §1

CSK = biological target: T3, CSK (Homo sapiens, UniProt P41240)
T3 construct: endogenous in cells; host or cells: HL60 (DSMZ ACC3)
Experimental: as §1

TEC = biological target: T4, TEC (Homo sapiens, UniProt P42680)
T4 sequence (P42680 1-631): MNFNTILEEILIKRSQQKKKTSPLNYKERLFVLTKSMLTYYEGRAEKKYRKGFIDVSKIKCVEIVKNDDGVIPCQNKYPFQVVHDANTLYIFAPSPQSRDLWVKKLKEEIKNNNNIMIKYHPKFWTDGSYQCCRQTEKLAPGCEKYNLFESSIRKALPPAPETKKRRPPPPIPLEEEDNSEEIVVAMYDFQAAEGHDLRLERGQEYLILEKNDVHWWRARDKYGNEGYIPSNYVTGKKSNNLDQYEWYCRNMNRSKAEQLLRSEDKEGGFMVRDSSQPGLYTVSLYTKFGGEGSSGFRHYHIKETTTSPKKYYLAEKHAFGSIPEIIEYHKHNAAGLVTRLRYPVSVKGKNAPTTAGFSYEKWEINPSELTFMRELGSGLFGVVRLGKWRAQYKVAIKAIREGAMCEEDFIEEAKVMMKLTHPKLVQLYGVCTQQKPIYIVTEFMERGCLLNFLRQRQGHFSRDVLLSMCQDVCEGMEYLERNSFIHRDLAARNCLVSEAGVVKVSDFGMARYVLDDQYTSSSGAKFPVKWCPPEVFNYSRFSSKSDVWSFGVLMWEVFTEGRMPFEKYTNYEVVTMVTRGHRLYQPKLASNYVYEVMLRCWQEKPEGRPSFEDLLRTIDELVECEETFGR
Experimental: as §1

T1 sequence (O75582 whole entry): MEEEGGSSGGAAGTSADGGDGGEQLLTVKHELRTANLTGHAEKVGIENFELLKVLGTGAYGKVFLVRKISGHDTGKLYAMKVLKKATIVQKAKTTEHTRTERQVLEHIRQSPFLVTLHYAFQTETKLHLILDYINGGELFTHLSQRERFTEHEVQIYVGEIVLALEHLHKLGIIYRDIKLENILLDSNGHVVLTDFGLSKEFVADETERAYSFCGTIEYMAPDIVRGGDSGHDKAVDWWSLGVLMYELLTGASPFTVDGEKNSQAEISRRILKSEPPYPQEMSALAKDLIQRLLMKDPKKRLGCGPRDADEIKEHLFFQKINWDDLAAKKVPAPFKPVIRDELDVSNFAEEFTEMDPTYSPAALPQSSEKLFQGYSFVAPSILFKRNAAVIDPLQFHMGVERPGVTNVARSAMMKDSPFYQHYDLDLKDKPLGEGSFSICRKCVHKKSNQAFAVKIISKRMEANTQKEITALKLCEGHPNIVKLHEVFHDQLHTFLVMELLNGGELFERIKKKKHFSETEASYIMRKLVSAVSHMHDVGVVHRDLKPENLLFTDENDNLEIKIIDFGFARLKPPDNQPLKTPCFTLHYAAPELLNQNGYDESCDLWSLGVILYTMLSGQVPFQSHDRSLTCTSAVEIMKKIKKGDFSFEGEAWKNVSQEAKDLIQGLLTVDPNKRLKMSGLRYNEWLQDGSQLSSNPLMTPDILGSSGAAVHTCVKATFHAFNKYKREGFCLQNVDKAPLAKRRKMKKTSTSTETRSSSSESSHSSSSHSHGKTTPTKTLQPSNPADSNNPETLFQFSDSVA

- inhibition at 10 µM (MSK1): 94.7%
- inhibition at 10 µM (ACK): 93.6%
- Competition % (CSK): 80.3%
- inhibition at 10 µM (TEC): 97%
Compound: CS(=O)(=O)Nc1ccccc1Nc1nc(Nc2cccc(OCCN)c2)ncc1Cl [CZC31326, N-(2-(2-(3-(2-aminoethoxy)phenylamino)-5-chloropyrimidin-4-ylamino)phenyl)methanesulfonamide]
